# Measurements from patent US10563244B2, “Nanopatterned extracellular matrices enable cell-based assays with a mass spectrometric readout” (NORTHWESTERN UNIVERSITY, priority 2016, dated 2020).
# Test system: cellular phosphatases (phosphotyrosine phosphatases) in HeLa cells
# Experiment: TCAL-SAMDI cell-based phosphatase activity assay (HeLa cells on fibronectin nanoarrays, lysis, SAMDI-MS readout)
# Protocol: Cell-Based Assay for Enzyme Activity. HeLa cells were obtained from ATCC and cultured in DMEM medium supplemented with fetal bovine serum, glutamine, penicillin and streptomycin. All cells were cultured in a humidified incubator at 37° C. and 5% CO2. Cells were trypsinized and suspended in media, and the average number of cells per μL was estimated using a hemocytometer to seed the desired number of cells per spot. The volume of media per spot was 3 μL for all experiments. Cells were cultured on the monolayers presenting fibronectin and the phosphatase peptide substrate on glass slides for 2 hours under standard growth conditions. Lysis buffer (1 μL) was delivered manually to each spot and the lysate was allowed to react with the monolayer for 1 hour at 37° C. in a humidity chamber. […] A solution of 2,4,6-trihydroxyacetopehenone (THAP) in acetone (30 mg/mL) was delivered to each spot on the array and the surfaces were analyzed using an Applied Biosystems 5800 MALDI TOF/TOF instrument with a 20 kV accelerating voltage in positive reflector mode. […]
# HeLa cells were seeded on the fibronectin nanopatterned surfaces and cultured the cells for two hours under standard media conditions (FIG. 4A). […] The mixed monolayer was rinsed with PBS buffer and then treated with 2,4,6-trihydroxyacetophenone (THAP) matrix (30 mg/mL in acetone) and analyzed with SAMDI-MS. […]
structure (smiles),measurement,setting,value
"O=C(CBr)c1ccc(O)cc1 [PTPI-I, PTP Inhibitor I]",decrease in phosphatase activity,"HeLa cells, 300 μM added to cell cultures, two hour culture period, then lysis and SAMDI-MS",92%
same,"phosphatase activity after addition of inhibitor (SAMDI spectra, FIG. 4C)","figure legend says inhibitor added to the lysis buffer, HeLa cells on patterned monolayers",loss of phosphatase activity
